In article PMC10849753, “Antiproliferative activity of platinum(II) and copper(II) complexes containing novel biquinoxaline ligands” (Metallomics: Integrated Biometal Science, 2024):

Assays:
Format in all cases: cell-based, human
U87 cells = assay: Matrigel invasion analysis; conditions: U87, 6.25 and 12.5 μM, 24 h, vs negative control
Protocol: The analysis was completed with U87 and HeLa cell lines to assess the metastatic potential of tumor cells using transwell inserts with an 8 μm pore size polycarbonate membrane (Corning Costar, Cambridge, MA, USA) coated with 1/5 of Matrigel (Beckton Dickinson, Bedford, MA, USA) and air-dried at room temperature. After seeding the U87 and HeLa cell lines (3 × 10^5cells/insert), the complex concentrations were selected as 6.25 or 12.5 μM and incubated at 37°C in a humidified incubator with 5% CO2 for 24 h. The cell monolayers in the transwell inserts were fixed with ice-cold methanol and stained with 0.05% crystal violet for the analysis. The invasion of the cells to the basolateral side of the inserts was investigated using a light microscope with 40× magnification.

[1] = test system: lung A549, cervix HeLa, and breast MD-A231 cells; assay: ROS production, DCFDA assay; conditions: MDA-231, 6.25 to 100 μM, 24 h, vs negative control
Protocol: (§1) The reactive oxygen species (ROS) formation on the selected cell lines upon exposure to the synthesized Cu(II) and Pt(II) complexes was investigated using the oxidation-sensitive dye, 2ʹ,7ʹ-dichlorofluorescein diacetate (DCFDA, #D6883 Sigma-Aldrich). The cell lines (A172, LN229, U87, HeLa, MDA-231, PC-3, A549, and CHO-K1) were seeded (6 × 10^3 cells/well) into the 96-well plates and incubated at 37°C and 5% CO2 for 24 h. After that, the Cu(II) and Pt(II) complexes, at a concentration range of 6.25 to 100 μM, were added to the cell monolayers. Hydrogen peroxide (H2O2), at concentrations from 50 to 500 μM, was utilized as a positive control. The following day, 5 μM of DCFDA in PBS was added to the cell monolayers and, then, the plate was incubated for 30–45 min. Consequently, the fluorescence intensity was measured with 485 nm excitation and 535 nm emission wavelengths using a microplate reader. The fluorescence values of each treatment were normalized to the negative control, including only growth medium without any treatment. The assay was repeated in triplicate.

prostate PC3 cells = assay: ROS production, DCFDA assay; conditions: 6.25 to 100 μM, 24 h
Protocol: as §1

HeLa cells = assay: In vitro comet assay; conditions: 25 and 50 μM, 24 h
Protocol: Commet assay was performed with U87 and HeLa cell lines (4 × 10^4 cells/well) to detect DNA damage in the individual eukaryotic cells, where 25 or 50 μM Cu(II) or Pt(II) complexes were added to the cells and incubated for 24 h. Subsequently, the comet assay was performed as described before.[31] The DNA damage was evaluated by calculating the DNA tail percentage using the following equation: DNA tail % = 100× tailing DNA density/cell DNA density. The assay was repeated twice, and 50 individual cells were involved for each treatment.

| SMILES | anti-invasive effect (U87 cells) | increase of ROS production [1] [fold] | ROS formation (prostate PC3 cells) | genotoxicity (DNA damage, comet) (HeLa cells) |
| --- | --- | --- | --- | --- |
| [Cl][Cu][Cl].c1ccc(-c2nc3ccc(-c4ccc5nc(-c6ccccn6)c(-c6ccccn6)nc5c4)cc3nc2-c2ccccn2)nc1 [Cu(tpbq)Cl2] | did not have any anti-invasive effect |  |  |  |
| [Cl][Cu][Cl].c1csc(-c2nc3ccc(-c4ccc5nc(-c6cccs6)c(-c6cccs6)nc5c4)cc3nc2-c2cccs2)c1 [Cu(ttbq)Cl2] |  | ~2 | no formation | only genotoxic on the Hela cells at a high concentration (50 μM) |
| [Cl][Pt][Cl].c1csc(-c2nc3ccc(-c4ccc5nc(-c6cccs6)c(-c6cccs6)nc5c4)cc3nc2-c2cccs2)c1 [Pt(ttbq)Cl2] |  | ~2 | no formation |  |
